Measured values taken from patent US11932608B1, “4-((2-(2-(2-(4-hydroxyphenyl)-4,5-diphenyl-1H-imidazol-1-yl)acetyl)hydrazono)methyl)benzoic acid as an anticancer compound” (KING FAISAL UNIVERSITY, priority 2023, dated 2024).

What was measured:
UACC-257 = assay: Percentage growth inhibition of in vitro subpanel tumor cell lines; assay type: cell-based; conditions: Homo sapiens; 0.01 mM; UACC-257, Melanoma; read-out: Percentage growth inhibition (GI %)
Procedure: (§1) The anticancer activity of 4-((2-(2-(2-(4-hydroxyphenyl)-4,5-diphenyl-1H-imidazol-1-yl)acetyl)hydrazono)methyl)benzoic acid was assessed against leukemia, non-small cell lung cancer, colon cancer, central nervous system (CNS) cancer, melanoma, ovarian cancer, renal cancer, prostate cancer, and breast cancer.
(§2) Percentage growth inhibition (GI %) of in vitro subpanel tumor cell lines at 0.01 mM concentration for compound 4-((2-(2-(2-(4-hydroxyphenyl)-4,5-diphenyl-1H-imidazol-1-yl)acetyl)hydrazono)methyl)benzoic acid (Labeled as AE21 in the table) can be seen in Table 1 below.

HCT-15 = assay: as above; assay type: cell-based; conditions: Homo sapiens; 0.01 mM; HCT-15, Colon Cancer; read-out: Percentage growth inhibition (GI %)
Procedure: as §1, §2

SF-268 = assay: as above; assay type: cell-based; conditions: Homo sapiens; 0.01 mM; SF-268, CNS Cancer; read-out: Percentage growth inhibition (GI %)
Procedure: as §1, §2

NCI-H23 = assay: as above; assay type: cell-based; conditions: Homo sapiens; 0.01 mM; NCI-H23, Non-Small Cell Lung Cancer; read-out: Percentage growth inhibition (GI %)
Procedure: as §1, §2

ACHN = assay: as above; assay type: cell-based; conditions: Homo sapiens, 0.01 mM, Renal Cancer, read-out: Percentage growth inhibition (GI %)
Procedure: as §1, §2

NCI-H226 = assay: as above; assay type: cell-based; conditions: Homo sapiens; 0.01 mM; NCI-H226, Non-Small Cell Lung Cancer; read-out: Percentage growth inhibition (GI %)
Procedure: as §1, §2

DU-145 = assay: as above; assay type: cell-based; conditions: Homo sapiens; 0.01 mM; DU-145, Prostate Cancer; read-out: Percentage growth inhibition (GI %)
Procedure: as §1, §2

M14 = assay: as above; assay type: cell-based; conditions: Homo sapiens; 0.01 mM; M14, Melanoma; read-out: Percentage growth inhibition (GI %)
Procedure: as §1, §2

OVCAR-4 = assay: as above; assay type: cell-based; conditions: Homo sapiens; 0.01 mM; OVCAR-4, Ovarian Cancer; read-out: Percentage growth inhibition (GI %)
Procedure: as §1, §2

HS 578T = assay: as above; assay type: cell-based; conditions: Homo sapiens, 0.01 mM, Breast Cancer, read-out: Percentage growth inhibition (GI %)
Procedure: as §1, §2

HL-60(TB) = assay: as above; assay type: cell-based; conditions: Homo sapiens, 0.01 mM, Leukemia, read-out: Percentage growth inhibition (GI %)
Procedure: as §1, §2

SNB-75 = assay: as above; assay type: cell-based; conditions: Homo sapiens; 0.01 mM; SNB-75, CNS Cancer; read-out: Percentage growth inhibition (GI %)
Procedure: as §1, §2

LOX IMVI = assay: as above; assay type: cell-based; conditions: Homo sapiens, 0.01 mM, Melanoma, read-out: Percentage growth inhibition (GI %)
Procedure: as §1, §2

HOP-62 = assay: as above; assay type: cell-based; conditions: Homo sapiens; 0.01 mM; HOP-62, Non-Small Cell Lung Cancer; read-out: Percentage growth inhibition (GI %)
Procedure: as §1, §2

CCRF-CEM = assay: as above; assay type: cell-based; conditions: Homo sapiens, 0.01 mM, Leukemia, read-out: Percentage growth inhibition (GI %)
Procedure: as §1, §2

EKVX = assay: as above; assay type: cell-based; conditions: Homo sapiens, 0.01 mM, Non-Small Cell Lung Cancer, read-out: Percentage growth inhibition (GI %)
Procedure: as §1, §2

KM12 = assay: as above; assay type: cell-based; conditions: Homo sapiens; 0.01 mM; KM12, Colon Cancer; read-out: Percentage growth inhibition (GI %)
Procedure: as §1, §2

HT29 = assay: as above; assay type: cell-based; conditions: Homo sapiens, HT-29; 0.01 mM; HT29, Colon Cancer; read-out: Percentage growth inhibition (GI %)
Procedure: as §1, §2

RPMI-8226 = assay: as above; assay type: cell-based; conditions: Homo sapiens; 0.01 mM; RPMI-8226, Leukemia; read-out: Percentage growth inhibition (GI %)
Procedure: as §1, §2

T-47D = assay: as above; assay type: cell-based; conditions: Homo sapiens, T47D, 0.01 mM, Breast Cancer, read-out: Percentage growth inhibition (GI %)
Procedure: as §1, §2

HCT-116 = assay: as above; assay type: cell-based; conditions: Homo sapiens; 0.01 mM; HCT-116, Colon Cancer; read-out: Percentage growth inhibition (GI %)
Procedure: as §1, §2

CAKI-1 = assay: as above; assay type: cell-based; conditions: Homo sapiens; 0.01 mM; CAKI-1, Renal Cancer; read-out: Percentage growth inhibition (GI %)
Procedure: as §1, §2

SF-539 = assay: as above; assay type: cell-based; conditions: Homo sapiens; 0.01 mM; SF-539, CNS Cancer; read-out: Percentage growth inhibition (GI %)
Procedure: as §1, §2

OVCAR-8 = assay: as above; assay type: cell-based; conditions: Homo sapiens; 0.01 mM; OVCAR-8, Ovarian Cancer; read-out: Percentage growth inhibition (GI %)
Procedure: as §1, §2

OVCAR-5 = assay: as above; assay type: cell-based; conditions: Homo sapiens; 0.01 mM; OVCAR-5, Ovarian Cancer; read-out: Percentage growth inhibition (GI %)
Procedure: as §1, §2

NCI-H460 = assay: as above; assay type: cell-based; conditions: Homo sapiens; 0.01 mM; NCI-H460, Non-Small Cell Lung Cancer; read-out: Percentage growth inhibition (GI %)
Procedure: as §1, §2

SK-MEL-5 = assay: as above; assay type: cell-based; conditions: Homo sapiens; 0.01 mM; SK-MEL-5, Melanoma; read-out: Percentage growth inhibition (GI %)
Procedure: as §1, §2

K-562 = assay: as above; assay type: cell-based; conditions: Homo sapiens, K562; 0.01 mM; K-562, Leukemia; read-out: Percentage growth inhibition (GI %)
Procedure: as §1, §2

SN12C = assay: as above; assay type: cell-based; conditions: Homo sapiens, 0.01 mM, Renal Cancer, read-out: Percentage growth inhibition (GI %)
Procedure: as §1, §2

MDA-MB-435 = assay: as above; assay type: cell-based; conditions: Homo sapiens; 0.01 mM; MDA-MB-435, Melanoma; read-out: Percentage growth inhibition (GI %)
Procedure: as §1, §2

A549/ATCC = assay: as above; assay type: cell-based; conditions: Homo sapiens, 0.01 mM, Non-Small Cell Lung Cancer, read-out: Percentage growth inhibition (GI %)
Procedure: as §1, §2

NCI-H522 = assay: as above; assay type: cell-based; conditions: Homo sapiens; 0.01 mM; NCI-H522, Non-Small Cell Lung Cancer; read-out: Percentage growth inhibition (GI %)
Procedure: as §1, §2

PC-3 = assay: as above; assay type: cell-based; conditions: Homo sapiens; 0.01 mM; PC-3, Prostate Cancer; read-out: Percentage growth inhibition (GI %)
Procedure: as §1, §2

BT-549 = assay: as above; assay type: cell-based; conditions: Homo sapiens; 0.01 mM; BT-549, Breast Cancer; read-out: Percentage growth inhibition (GI %)
Procedure: as §1, §2

IGROV1 = assay: as above; assay type: cell-based; conditions: Homo sapiens, IGROV-1; 0.01 mM; IGROV1, Ovarian Cancer; read-out: Percentage growth inhibition (GI %)
Procedure: as §1, §2

NCI/ADR-RES = assay: as above; assay type: cell-based; conditions: Homo sapiens, 0.01 mM, Ovarian Cancer, read-out: Percentage growth inhibition (GI %)
Procedure: as §1, §2

MDA-MB-231/ATCC = assay: as above; assay type: cell-based; conditions: Homo sapiens, 0.01 mM, Breast Cancer, read-out: Percentage growth inhibition (GI %)
Procedure: as §1, §2

SW-620 = assay: as above; assay type: cell-based; conditions: Homo sapiens; 0.01 mM; SW-620, Colon Cancer; read-out: Percentage growth inhibition (GI %)
Procedure: as §1, §2

U251 = assay: as above; assay type: cell-based; conditions: Homo sapiens, U-251; 0.01 mM; U251, CNS Cancer; read-out: Percentage growth inhibition (GI %)
Procedure: as §1, §2

MCF7 = assay: as above; assay type: cell-based; conditions: Homo sapiens; 0.01 mM; MCF7, Breast Cancer; read-out: Percentage growth inhibition (GI %)
Procedure: as §1, §2

MOLT-4 = assay: as above; assay type: cell-based; conditions: Homo sapiens; 0.01 mM; MOLT-4, Leukemia; read-out: Percentage growth inhibition (GI %)
Procedure: as §1, §2

HCC-2998 = assay: as above; assay type: cell-based; conditions: Homo sapiens; 0.01 mM; HCC-2998, Colon Cancer; read-out: Percentage growth inhibition (GI %)
Procedure: as §1, §2

SF-295 = assay: as above; assay type: cell-based; conditions: Homo sapiens; 0.01 mM; SF-295, CNS Cancer; read-out: Percentage growth inhibition (GI %)
Procedure: as §1, §2

UO-31 = assay: as above; assay type: cell-based; conditions: Homo sapiens; 0.01 mM; UO-31, Renal Cancer; read-out: Percentage growth inhibition (GI %)
Procedure: as §1, §2

Question: What does the source list for `O=C(Cn1c(-c2ccc(O)cc2)nc(-c2ccccc2)c1-c1ccccc1)N/N=C/c1ccc(C(=O)O)cc1` [AE21, 4-((2-(2-(2-(4-hydroxyphenyl)-4,5-diphenyl-1H-imidazol-1-yl)acetyl)hydrazono)methyl)benzoic acid]?
Answer: inhibition at 10 µM (UACC-257): 2.54%; inhibition at 10 µM (HCT-15): 51.7%; inhibition at 10 µM (SF-268): 11.7%; inhibition at 10 µM (NCI-H23): 4.14%; inhibition at 10 µM (ACHN): 57.2%; inhibition at 10 µM (NCI-H226): 11.4%; inhibition at 10 µM (DU-145): 43%; inhibition at 10 µM (M14): 16.5%; inhibition at 10 µM (OVCAR-4): 15%; inhibition at 10 µM (HS 578T): 22.5%; inhibition at 10 µM (HL-60(TB)): 53.6%; inhibition at 10 µM (SNB-75): 13.8%; inhibition at 10 µM (LOX IMVI): 33.4%; inhibition at 10 µM (HOP-62): 7.6%; inhibition at 10 µM (CCRF-CEM): 78.4%; inhibition at 10 µM (EKVX): 32.1%; inhibition at 10 µM (KM12): 16.2%; inhibition at 10 µM (HT29): 55.4%; inhibition at 10 µM (RPMI-8226): 21.4%; inhibition at 10 µM (T-47D): 22.7%; inhibition at 10 µM (HCT-116): 50.7%; inhibition at 10 µM (CAKI-1): 8.34%; inhibition at 10 µM (SF-539): 3.59%; inhibition at 10 µM (OVCAR-8): 49%; inhibition at 10 µM (OVCAR-5): 11.7%; inhibition at 10 µM (NCI-H460): 82.4%; inhibition at 10 µM (SK-MEL-5): 8.04%; inhibition at 10 µM (K-562): 44.7%; inhibition at 10 µM (SN12C): 47.8%; inhibition at 10 µM (MDA-MB-435): 16.6%; inhibition at 10 µM (A549/ATCC): 64.9%; inhibition at 10 µM (NCI-H522): 35.3%; inhibition at 10 µM (PC-3): 43.2%; inhibition at 10 µM (BT-549): 11.9%; inhibition at 10 µM (IGROV1): 4.51%; inhibition at 10 µM (NCI/ADR-RES): 2.67%; inhibition at 10 µM (MDA-MB-231/ATCC): 25.6%; inhibition at 10 µM (SW-620): 67.6%; inhibition at 10 µM (U251): 48.5%; inhibition at 10 µM (MCF7): 81.1%; inhibition at 10 µM (MOLT-4): 70.1%; inhibition at 10 µM (HCC-2998): 6.33%; inhibition at 10 µM (SF-295): 29.4%; inhibition at 10 µM (UO-31): 12.8%; melting point: 220 to 222 °C
